Measurements from ChEMBL document CHEMBL4152362, “Discovery of DS-6930, a potent selective PPARγ modulator. Part II: Lead optimization” (Bioorg Med Chem, 2018).
In brackets after ≈: the same amount, converted by molar mass.

Experiments:
[1] = target: T1, Peroxisome proliferator-activated receptor gamma (Homo sapiens, UniProt P37231); assay: Agonist activity at recombinant human GAL4-DBD fused PPARgamma LBD expressed in COS7 cells after 24 hrs by luciferase reporter gene assay; assay type: cell-based
T1 sequence (P37231 whole entry): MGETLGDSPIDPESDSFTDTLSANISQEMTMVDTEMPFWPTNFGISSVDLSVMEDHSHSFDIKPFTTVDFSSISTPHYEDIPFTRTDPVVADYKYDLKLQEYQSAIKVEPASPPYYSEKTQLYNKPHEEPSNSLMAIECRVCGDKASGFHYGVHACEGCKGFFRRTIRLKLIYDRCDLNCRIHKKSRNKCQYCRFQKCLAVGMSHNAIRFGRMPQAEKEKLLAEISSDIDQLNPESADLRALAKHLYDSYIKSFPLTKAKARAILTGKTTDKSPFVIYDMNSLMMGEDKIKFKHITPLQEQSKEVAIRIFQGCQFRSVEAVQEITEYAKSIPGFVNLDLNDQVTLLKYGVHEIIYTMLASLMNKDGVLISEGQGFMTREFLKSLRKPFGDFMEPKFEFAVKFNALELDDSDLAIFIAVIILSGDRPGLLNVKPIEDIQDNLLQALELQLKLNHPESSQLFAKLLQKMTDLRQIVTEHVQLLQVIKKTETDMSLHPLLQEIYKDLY

[2] = target: T2, Peroxisome proliferator-activated receptor gamma (Homo sapiens) (UniProt P37231); assay: Agonist activity at recombinant human GAL4-DBD fused PPARgamma LBD expressed in COS7 cells at 10 uM after 24 hrs by luciferase reporter gene assay relative to rosiglitazone; assay type: cell-based
T2 sequence (whole entry): T1 sequence (P37231 whole entry)

[3] = target: T3, Peroxisome proliferator-activated receptor alpha (Homo sapiens, UniProt Q07869); assay: Agonist activity at recombinant human GAL4-DBD fused PPARalpha LBD expressed in COS7 cells after 24 hrs by luciferase reporter gene assay; assay type: cell-based
T3 sequence (Q07869 whole entry): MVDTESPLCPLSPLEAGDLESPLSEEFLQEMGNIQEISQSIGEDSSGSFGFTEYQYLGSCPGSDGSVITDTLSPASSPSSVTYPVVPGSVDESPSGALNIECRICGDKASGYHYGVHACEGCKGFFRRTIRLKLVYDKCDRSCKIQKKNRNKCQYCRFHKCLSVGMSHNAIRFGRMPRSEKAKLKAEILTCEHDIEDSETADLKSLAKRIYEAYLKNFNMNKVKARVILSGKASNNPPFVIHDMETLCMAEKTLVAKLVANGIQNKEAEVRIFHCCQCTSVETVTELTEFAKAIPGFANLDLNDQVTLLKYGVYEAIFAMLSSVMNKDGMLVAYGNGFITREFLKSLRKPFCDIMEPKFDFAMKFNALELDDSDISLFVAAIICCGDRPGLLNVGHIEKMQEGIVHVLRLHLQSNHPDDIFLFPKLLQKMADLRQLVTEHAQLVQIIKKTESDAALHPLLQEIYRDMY

[4] = target: T4, Peroxisome proliferator-activated receptor alpha (Homo sapiens) (UniProt Q07869); assay: Agonist activity at recombinant human GAL4-DBD fused PPARalpha LBD expressed in COS7 cells at 10 uM after 24 hrs by luciferase reporter gene assay relative to 2-(4-tert-Butylphenoxy)-3-[4-[2-[(4-pyridin-2-ylbenzoyl)amino]ethoxy] phenyl]propionic acid; assay type: cell-based
T4 sequence (whole entry): T3 sequence (Q07869 whole entry)

[5] = 1-octanol/PBS distribution co-efficient, log D of the compound at […] at pH 7.4 after 30 mins by HPLC-MS/MS method; assay type: physicochemical
[6] = Apparent permeability of the compound after 4 hrs by PAMPA; assay type: ADME
[7] = Metabolic stability in human liver microsomes after 0.5 hrs; assay type: ADME, microsome; settings: read-out: Stability
[8] = Metabolic stability in cynomolgus monkey liver microsomes after 0.5 hrs; assay type: ADME, Macaca fascicularis, microsome; settings: read-out: Stability
[9] = Cmax in cynomolgus monkey at 3 mg/kg, po by LC-MS/MS; assay type: ADME, organism-based, Macaca fascicularis; parameters: dose 3 mg/kg, route oral; settings: in vivo
[10] = Tmax in cynomolgus monkey at 3 mg/kg, po by LC-MS/MS; assay type: ADME, organism-based, Macaca fascicularis; settings: in vivo
[11] = Half life in cynomolgus monkey at 3 mg/kg, po by LC-MS/MS; assay type: ADME, organism-based, Macaca fascicularis; settings: in vivo
[12] = AUClast in cynomolgus monkey at 3 mg/kg, po by LC-MS/MS; assay type: ADME, organism-based, Macaca fascicularis; parameters: dose 3 mg/kg, time 0 - last, route oral; settings: in vivo
[13] = Oral bioavailability in cynomolgus monkey at 3 mg/kg by LC-MS/MS; assay type: ADME, organism-based, Macaca fascicularis; settings: in vivo
[14] = Clearance in cynomolgus monkey at 1 mg/kg, iv by LC-MS/MS; assay type: ADME, organism-based, Macaca fascicularis; settings: in vivo
[15] = Volume of distribution at steady state in cynomolgus monkey at 1 mg/kg, iv by LC-MS/MS; assay type: ADME, organism-based, Macaca fascicularis; settings: in vivo, read-out: Vdss
Hepatocyte [16] = assay: Cytotoxicity against F344/DuCrlCrlj rat primary hepatocytes assessed as reduction in mitochondrial enzyme activity at 100 uM after 24 hrs by WST8 assay relative to control; assay type: cell-based; parameters: scale not given: the % may be the effect or the level left
Hepatocyte [17] = assay: Cytotoxicity against F344/DuCrlCrlj rat primary hepatocytes assessed as reduction in mitochondrial enzyme activity at 10 to 100 uM after 24 hrs by WST8 assay; assay type: cell-based
[18] = Aqueous thermodynamic solubility of the compound in pH 6.8 solution up to 4 hrs by HPLC-UV analysis; assay type: physicochemical; settings: read-out: Therm_solubility
Hepatocyte [19] = assay: Cytotoxicity against F344/DuCrlCrlj rat primary hepatocytes assessed as reduction in cell viability at 10 to 100 uM after 24 hrs by LDH release assay; assay type: cell-based
Hepatocyte [20] = assay: Cytotoxicity against F344/DuCrlCrlj rat primary hepatocytes assessed as reduction in cell viability at 100 uM after 24 hrs by LDH release assay; assay type: cell-based

Row | SMILES | EC50 [1] | Emax [2] | EC50 [3] | Emax [4] | logD at 0.5 h [5] | Papp at 4 h [6] | remaining at 0.5 h [7] | remaining at 0.5 h [8] | Cmax [9] | Tmax [10] | half-life [11] | AUC(0-t) [12] | bioavailability [13] | clearance [14] | Vd [15] | Activity (Hepatocyte [16]) | Activity (Hepatocyte [17]) | solubility thermodynamic at 4 h [18] | Activity (Hepatocyte [19]) | Activity (Hepatocyte [20])
1 | Cn1c(COc2cccc(C(=O)O)c2)nc2ccc(Oc3ccc(Cl)c(F)c3)cc21 | 0.068 µM | 82% | > 10 µM | 32% | 2.7 | 38.5 ×10⁻⁶ cm/s | 100% | 100% | 4440 ng/mL | 1.67 h | 18.3 h | 40200 ng·h/mL | 25% | 0.32 mL/min/kg | 0.2 L/kg | 19% | Dose-dependent effect | – | – | –
2 | Cc1cnc(Oc2ccc3nc(COc4cccc(C(=O)O)c4)n(C)c3c2)c(F)c1 | – | – | > 10 µM | – | 1.1 | 5.8 ×10⁻⁶ cm/s | 100% | – | 100 ng/mL | 4 h | 49.8 h | 1470 ng·h/mL | 8.9% | 3.07 mL/min/kg | 0.88 L/kg | – | Non-Toxic | 9.2 µg/mL (≈ 22.6 µM) | Non-Toxic | Toxic
